The text below walks through data of patent publication US20140011755A1, “Cardiac Glycosides for Treating Autoimmune Disease” (Department of Veterans Affairs, priority 2010, published 2014).

In one data set the test system is erectile dysfunction. The settings on record: 20 mg sublingual; cited from earlier work.
The subject of data set [1] is TNF-mediated NFκB activity in HeLa cells. Put plainly: NFκB luciferase reporter assay in TNF-stimulated HeLa cells. It is filed as cell-based. The settings on record: pre-treatment 6 hours with 0-500 nM, 50 ng/mL TNF. As to the method:
FIG. 8. […] Values represent mean light units produced. Error bars represent SEM, and statistical significance was determined by unpaired T-test. Single and double asterisks represent P-values of 0.01 or 0.001, respectively. […] Samples were harvested at designated time points and were fractionated into nuclear and cytoplasmic lysates (Pierce). Lysates were quantified using BCA (Pierce), and were equally loaded according to total protein. Membranes were probed for levels of nuclear phospho-p65 (ReIA), phospho-ReIB, and histone (histone served as loading control and fractionation method control) and cytoplasmic degradation of IκBα (beta-tubulin served as loading control and fractionation method control).
HeLa cells were co-transfected with the reporter pNFκB-luc and control vector pTAL (Renilla) for 18 h prior to incubation with 0-500 nM cardiac glycoside for 6 h. Cells are stimulated with 50 ng/mL TNF. […] FIG. 8 B).

Another data set concerns TNFR. It is filed as cell-based, mice. The settings on record: pre-treatment with 3.3 or 33 nM. How it is done: (§1) Activity was monitored by ^3H-thymidine incorporation as a read-out for proliferation. […] Cell type(s) in the splenocyte population responsive to therapeutic concentrations of cardiac glycoside were determined by identifying the population of cells that responded to a dose-dependent decrease in activity in the presence of stimulant, defined as ligand(s) binding to cognate receptor(s). Activity was analyzed by: ^3H-thymidine or BrdU incorporation to monitor proliferation or by ELISA to monitor cytokine production. Splenic T lymphocytes were isolated by negative selection (MACS, Miltinyi Biotec) and are stimulated with PMA, ConA or through the TCR with anti-CD3/anti-CD28 Dynabeads (Invitrogen) and collagen II (all non-TNFR receptors/pathways). […] Peritoneal and bone marrow-derived macrophages were isolated from CIA mice in the presence of M-CSF growth factor and were stimulated with TNF and CD40 ligand (CD40L). […] Splenic B lymphocytes were isolated by negative selection (MACS, Miltinyi Biotec) and were stimulated with BAFF (BLyS), CD40L or through the BCR with anti-IgM u-chain specific antibodies.

A further data set addresses T1, CD40 (Mus musculus, UniProt P27512).
T1 construct: Peritoneal and bone marrow-derived macrophages were isolated from CIA mice; endogenous in cells; host or cells: peritoneal and bone marrow-derived macrophages from CIA mice
T1 sequence (P27512 20-289): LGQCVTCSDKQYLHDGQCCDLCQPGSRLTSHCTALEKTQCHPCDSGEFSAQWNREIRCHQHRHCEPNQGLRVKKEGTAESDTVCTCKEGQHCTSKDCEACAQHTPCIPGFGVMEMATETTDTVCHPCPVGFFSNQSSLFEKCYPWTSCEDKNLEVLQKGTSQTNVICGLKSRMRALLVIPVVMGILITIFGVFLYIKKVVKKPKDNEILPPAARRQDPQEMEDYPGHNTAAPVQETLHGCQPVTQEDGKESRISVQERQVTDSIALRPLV
In kind it is cell-based, mice. Particulars: pre-treatment with 3.3 or 33 nM. How it is done: as §1

Data set [2] deals with collagen-induced arthritis (CIA) joints. In kind it is in vivo, DBA1/J mice. Particulars: cross-sectioned ankle joints, CIA prevention groups. As to the method:
FIG. 7. Cardiac glycosides reduce joint pathology in the CIA mouse model for rheumatoid arthritis. Blinded scoring was performed on histologic sections of joints harvested from mice at the end of a CIA prevention study (A-C). Joints derived from three representative mice belonging to each prevention group (A-C) were decalcified, fixed and stained with tolidine blue, followed by scoring by an examiner blinded to treatment status for the severity of synovitis (inflammation), pannus (growth of the synovial lining), and erosions of bone. (D-G) Joints derived from three representative mice belonging to each prevention group were decalcified, fixed, and stained with hematoxylin and eosin. Cross-sectioned ankle joints from vehicle (D), digitoxin (E), ouabain (F) and proscillaridin (G) treated mice are presented. Error bars represent SEM, and asterisks indicate P-values less than 0.05 by Mann-Whitney test.
In treatment studies, mice were randomly enrolled in treatment groups and treatment commenced when the average clinical score was at or above 2. […] Daily dosing commenced upon enrollment at the abovementioned concentrations. […] Double-blinded histopathology scoring was conducted of cross-sectioned joints taken from cardiac glycoside and vehicle recipients. […] The results obtained from these animal studies indicate that cardiac glycosides are effective at reducing the clinical manifestations of disease and reducing joint pathology in mice with collagen arthritis.
The effects of the different cardiac glycoside treatments on CIA pathology was analyzed by histological scoring. Inflammatory cell infiltrate, synovial hyperplasia, pannus formation and articular cartilage and bone deterioration were evaluated in sectioned paws of treated mice at specific time-points throughout the disease course. […] The ELISA was developed and read using BD ELISA development kit. […]

For data set [3], the system named is anti-type II collagen antibodies. It is filed as in vivo. The settings on record: sera of 6 mice per prevention group, ANOVA. As to the method:
FIG. 10. Cardiac glycosides reduce immunoglobulin levels in CIA mice. ELISAs for anti-type II collagen antibodies were performed on sera derived from 6 representative mice of each prevention group (A, B). Isotype specific antibodies for IgG1 and IgG2a (A) and IgM (B) were utilized. […] Statistical analysis was performed using ANOVA and asterisks indicate points at which the P-values were less than 0.001.
The effects of the different cardiac glycoside treatments on CIA pathology was analyzed by histological scoring. Inflammatory cell infiltrate, synovial hyperplasia, pannus formation and articular cartilage and bone deterioration were evaluated in sectioned paws of treated mice at specific time-points throughout the disease course. Histopathology scores of inflammation, pannus formation and bone and cartilage erosions were conducted by a blinded investigator on toludine blue-stained cross sections of fixed leg joints from representative mice in vehicle and glycoside groups. Pathology scoring for each of the three categories are on a scale of 0-4 with grade 0=normal, 1=mild inflammation, hyperplasia of the synovial lining, cartilage destruction without bone erosion, grades 2 to 4=increasing degrees of inflammatory cell infiltrate, synovial hyperplasia, pannus formation and cartilage and bone destruction. Error bars represent SEM and statistics were performed using the Mann-Whitney test. At the endpoint, mice are bled and serum is collected from representative mice and stored at −80 C until use. To determine anti-collagen II antibody levels and to characterize isotype prevalence, bovine collagen II (Chondrex) was coated O/N at 4 C on an ELISA plate, washed and incubated with 100 uL of 1:10 dilution of each serum sample (in triplicate) for 2 h at RT. Wells were washed and incubated with anti-mouse IgM u-chain specific (Jackson), anti-mouse IgG1, or anti-mouse IgG2a (Southern Biotech) for 1 h at RT. The ELISA was developed and read using BD ELISA development kit. Statistical analysis was performed using the two-tailed ANOVA and asterisks represent P-values less than 0.01.

For data set [4] the following is noted: Human, 3 × 0.5 mg/kg per diem, oral; Andersson, et al. (1975); cited from earlier work.
The next data set concerns TNF, IL-6 and IL-1beta. Description: Serum cytokine ELISA in CIA treatment groups. The settings on record: serum from 3 mice per treatment group, ELISA in triplicate. In kind it is in vivo. From the text: FIG. 9. Serum cytokine levels are similar between vehicle and cardiac glycoside treatment groups. […] The unpaired student t-test was used to assess significance.
Data set [5] deals with collagen-induced arthritis (CIA). It is filed as in vivo, DBA1/J mice.
For data set [6] the following is noted: injectable versus other formulations; cited from earlier work.
[7] abbreviates: daily i.p. from Mean Visual Score of 2, digitoxin 0.3 mg/kg, proscillaridin […], Mann-Whitney.

In the case of `CCCc1nn(C)c2c(=O)[nH]c(-c3cc(S(=O)(=O)N4CCN(C)CC4)ccc3OCC)nc12` [sildenafil], the “safety and efficacy of sublingual administration” value with erectile dysfunction is “safe and effective”.
On to `C[C@@H]1O[C@@H](O[C@@H]2C=C3CC[C@@H]4[C@H](CC[C@]5(C)[C@@H](c6ccc(=O)oc6)CC[C@]45O)[C@@]3(C)CC2)[C@H](O)[C@H](O)[C@H]1O` [Proscillaridin, proscillaridin A], for which the “TNF-mediated NFκB activation (luciferase light units)” value in data set [1] is on record as “reduced TNF-mediated NFκB activation in a dose-dependent fashion”. Besides, the “TNF-mediated activation of macrophage through TNFR” value in the data set with TNFR is listed as “inhibits”. The “CD40L-mediated activation of macrophage through CD40” value on CD40 was “inhibits”. Moreover, in data set [2], the “immune cell infiltrate into the joints (hematoxylin and eosin)” value is “decreased amounts of immune cell infiltrate”. In data set [3], the “anti-type II collagen IgG1 level relative to vehicle” value is listed as “reduced levels” and the “anti-type II collagen IgM level relative to vehicle” value is “reduced levels”. Moreover, the “Serum conc.” value in data set [4] is recorded as 0.75 ng/mL. Besides, in the data set with TNF, IL-6 and IL-1beta, the “Serum cytokine levels (TNF, IL-6 and IL-1beta) versus vehicle” value is recorded as “similar”. In addition, in [5] (setting [7]), the “Mean Paw Thickness, treatment of established arthritis” value is “statistically significant reductions” and the “Mean Visual Score, treatment of established arthritis” value is listed as “statistically significant reductions”. Besides, the “development of CIA (Mean Visual Arthritis Score, Mean Paw Thickness), prevention study” value in [5] (daily i.p. from the day prior to induction, digitoxin 0.3 mg/kg, ouabain 0.03 mg/kg, proscillaridin […]) is on record as “prevented the development of CIA”. In data set [5] (first dose one day prior to boost, 0.3 mg/kg digitoxin, 0.03 mg/kg ouabain, […] proscillaridin, 0.35 mg/kg digoxin, […] bufalin, 15 mice per group), the “average clinical arthritis scores compared to vehicle, prevention study” value is on record as “significantly reduced”. Besides, the “prevention and treatment of collagen-induced arthritis (CIA)” value in [5] (murine model for rheumatoid arthritis, summary statement) is “potently prevent and treat”. For the same molecule, the bioavailability by formulation entry in data set [6] is recorded as “higher bioavailability with injectable formulations”.
